Earlier results in patent US6284262A, “Compact dosage unit for buccal administration of a pharmacologically active agent” (priority 1999, dated 2001).

What was measured:
[1] = tested on: albumin and other proteins; conditions: plasma, adult men
[2] = tested on: sex hormone-binding protein; conditions: plasma, adult men

SMILES: C[C@]12CC[C@H]3[C@@H](CCC4=CC(=O)CC[C@@]43C)[C@@H]1CC[C@@H]2O [testosterone]
- bound to albumin and other proteins [1]: the remainder
- free, or unbound testosterone [1]: about 2%
- absorption after oral administration: well absorbed
- therapeutic blood levels via oral administration: not possible to achieve therapeutic blood levels
- degradation during passage through the liver and intestine (oral): quickly degraded
- testosterone bound to sex hormone-binding protein [2]: Approximately 40%
